The record followed here is US5350866A, “10-desacetoxytaxol derivatives” (Bristol-Myers Squibb Company, priority 1992, dated 1994).

The subject of test [1] is HCT-116 human colon carcinoma cells. Put plainly: In vitro cytotoxicity (XTT assay), HCT-116. The settings on record: HCT-116, 72 h, read-out: IC50 HCT-116. In general terms: Formazan colour is commonly taken as a measure of viable cells.
Test [2] relates to HCT-116/VM46 human colon carcinoma cells. In words: In vitro cytotoxicity (XTT assay), teniposide-resistant, multidrug resistance phenotype HCT-116/VM46.

As to `CC(=O)O[C@@]12CO[C@@H]1C[C@H](O)[C@@]1(C)C(=O)CC3=C(C)[C@@H](OC(=O)[C@H](O)[C@@H](NC(=O)c4ccccc4)c4ccccc4)C[C@@](O)([C@@H](OC(=O)c4ccccc4)[C@H]21)C3(C)C` [10-Desacetoxytaxol], the IC50 in test [1] worked out at 8 nM.
With `CC(=O)O[C@H]1C(=O)[C@@]2(C)[C@H]([C@H](OC(=O)c3ccccc3)[C@]3(O)C[C@H](OC(=O)[C@H](O)[C@@H](NC(=O)c4ccccc4)c4ccccc4)C(C)=C1C3(C)C)[C@]1(OC(C)=O)CO[C@@H]1C[C@@H]2O` [Taxol], the IC50 in test [1] is 4 nM; in test [2] (Homo sapiens, HCT-116/VM46, 72 h, read-out: IC50 HCT-116/VM46) it was 440 nM. Further, the “fold resistance relative to HCT116 cells” value in test [2] (value in parenthesis, HCT-116/VM46 relative to HCT116 cells, 4320 min) stood at 124.
